Laboratory results as given in patent US6924301B1, “Composition for treating or preventing arrhythmia” (Shionogi & Co., Ltd., priority 1999, dated 2005).

Assays:
cPLA2 = molecular target: T1, cPLA2 (Homo sapiens, UniProt P47712); test: cPLA2 inhibitory activity; format: biochemical; conditions: 1-palmitoyl-2-[14C]-arachidonoyl-sn-glycero-3-phosphocholine liposomes, 15 min at 37° C.
T1 sequence (P47712 1-749): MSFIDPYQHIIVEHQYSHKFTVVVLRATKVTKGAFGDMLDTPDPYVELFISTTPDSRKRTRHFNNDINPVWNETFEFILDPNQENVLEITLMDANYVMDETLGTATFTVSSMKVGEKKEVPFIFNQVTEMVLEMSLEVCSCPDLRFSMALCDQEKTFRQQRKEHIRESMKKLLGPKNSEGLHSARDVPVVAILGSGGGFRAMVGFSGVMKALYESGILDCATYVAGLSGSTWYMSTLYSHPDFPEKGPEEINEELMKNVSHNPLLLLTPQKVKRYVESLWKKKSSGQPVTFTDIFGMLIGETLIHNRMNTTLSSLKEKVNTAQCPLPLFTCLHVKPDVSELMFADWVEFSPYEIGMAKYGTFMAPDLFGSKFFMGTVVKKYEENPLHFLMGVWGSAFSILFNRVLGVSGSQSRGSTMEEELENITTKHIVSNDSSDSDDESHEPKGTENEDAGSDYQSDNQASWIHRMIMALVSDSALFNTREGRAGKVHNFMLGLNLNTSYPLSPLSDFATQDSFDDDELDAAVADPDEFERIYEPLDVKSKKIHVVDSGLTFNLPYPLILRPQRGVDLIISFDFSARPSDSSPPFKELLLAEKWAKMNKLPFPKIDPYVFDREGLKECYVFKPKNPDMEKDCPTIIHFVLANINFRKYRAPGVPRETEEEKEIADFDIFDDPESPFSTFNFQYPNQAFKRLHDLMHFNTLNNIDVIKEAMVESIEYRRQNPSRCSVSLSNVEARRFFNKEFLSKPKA
Protocol: The compounds of the present invention were tested for the cPLA2 inhibitory activity according to the method disclosed in […]. Roberts, […], and J. E. Putnam, J. Biol. Chem., 1991, 266, 5268-5272 as outlined below. […] The reaction mixture includes 50 mM HEPES buffer (pH 7.5), 1 mM calcium chloride, 150 mM sodium chloride, 0.1 mg/ml bovine serum albumin, and 1.7 mM dithiothreitol. To the reaction mixture was added the compound of the present invention and the substrate solution. The reaction was allowed to start by adding an enzyme and continued for 15 min at 37° C. The fatty acids released by the reaction were extracted by the method described in V. P. Dole, and H. Meinertz, J. Biol. Chem., 1960, 235, 2595-2599 and its radiation activity was measured on a liquid scintillation counter. Control was obtained by conducting the experiment in the same manner except that a compound of the present invention was not added.

Wistar male rats = test: Arrhythmia induced by ischemia-reperfusion (coronary ligation 3 min, 10 min reperfusion) in anesthetized rats; format: in vivo, rat; conditions: for ventricular fibrillation / ventricular tachycardia: total duration during 10 min reperfusion, mean±S.D.; for effect on ventricular tachycardia induced by ischemia-reperfusion: summary in words of Tables 11 and 12, vs vehicle
Protocol: The utility of the present invention for treating or preventing arrhythmia was confirmed in a manner similar to that described in Circulation Research 56: 545-548, 1984.
Wistar male rats are used as experimental animals. Anesthesia of animal is induced by administration of 30 mg/kg to 60 mg/kg, preferably 40 mg/kg of pentobarbital sodium (preferably intraperitoneal injection). A catheter for the administration of drugs is placed in the jugular vein. Electrocardiogram (ECG) is recorded from lead II during cardiac ischemia and reperfusion. A thoracotomy is performed under artificial ventilation. Left coronary artery is ligated with silicon tube for 3 to 5 min, preferably 3 min. Reperfusion is performed by cutting snare. Total duration of ventricular tachycardia and ventricular fibrillation during 5 to 30 min, preferably 10 min reperfusion are evaluated. Test compounds are dissolved in solvent containing 10% DMSO, 10% ethanol, 30% polyethylene glycol and 50% distilled water and sodium hydrocarbonate is added to the solution to adjust final concentration to 0 to 1%, preferably 0.5%. Drugs are administrated intravenously in bolus at 15 to 60 min, preferably 30 min before reperfusion followed by 30 to 40 min, preferably 40 min infusion.
Wistar male rats (weight 250-350 g) were used. The compound (C-4) (the compound M-17 described in WO98/33797) and the compound (B-1) shown below were dissolved in solvent containing DMSO:ethanol:polyethylene glycol 300:1% aqueous sodium hydrogen carbonate solution=10:10:30:50 (volume ratio). Anesthesia was induced with intraperitoneal injection of 40 mg/kg of pentobarbital sodium. A catheter for the administration of drugs was placed in the jugular vein. Electrocardiogram (ECG) was recorded from lead II during cardiac ischemia and 10 min reperfusion. Drugs were administrated intravenously in bolus at 30 min before reperfusion followed by 40 min infusion. Solvent containing DMSO:ethanol:polyethylene glycol 300:1% aqueous sodium hydrogen carbonate solution=10:10:30:50 (volume ratio) was administrated as vehicle in a administration experiment. A thoracotomy was performed under artificial ventilation. Left coronary artery was ligated with silicon tube for 3 min. Reperfusion was performed by cutting snare. Total duration of ventricular tachycardia (VT) and ventricular fibrillation (VF) during 10 min reperfusion were evaluated.
Data are expressed as mean±S.D. Statistical analysis was performed with Welch's t-test. A value of P<0.05 was considered significant. Compound (C-4) [drawing 73]

[1] = Bolus (i.v.) + Infusion (i.v.) 0.001 mg/kg + 0.001 mg/kg/hr
[2] = Bolus (i.v.) + Infusion (i.v.) 0.01 mg/kg + 0.01 mg/kg/hr
[3] = Bolus (i.v.) + Infusion (i.v.) 0.1 mg/kg + 0.1 mg/kg/hr

IC50 (cPLA2) [nM]	melting point [°C]	Structure (SMILES)	ventricular fibrillation (Wistar male rats; [1]) [s]	ventricular tachycardia (Wistar male rats; [1]) [s]	ventricular fibrillation (Wistar male rats; [2]) [s]	ventricular tachycardia (Wistar male rats; [2]) [s]	ventricular fibrillation (Wistar male rats; [3]) [s]	ventricular tachycardia (Wistar male rats; [3]) [s]	effect on ventricular tachycardia induced by ischemia-reperfusion (Wistar male rats)
3.7	158 to 160	O=C1NC(=O)/C(=C/c2ccc(C(=O)NC[C@@H]3C[C@@H](SC(c4ccccc4)(c4ccccc4)c4ccccc4)CN3C(=O)c3ccccc3C(=O)c3ccc(F)cc3F)cc2)S1 [Compound B-1]	44.5 ± 133.3	54.8 ± 100.9	56.5 ± 169.5	31.1 ± 62.3	0.0 ± 0.0	0.4 ± 0.9	significantly reduced
–	–	CC(C)CN(C(c1ccccc1)c1ccccc1)[C@@H]1C[C@@H](CNC(=O)c2ccc(/C=C3\SC(=O)NC3=O)cc2)N(C(=O)c2ccccc2C(=O)c2ccc(F)cc2F)C1 [Compound C-4]	15.1 ± 41.2	28.7 ± 50.3	1.6 ± 2.9	7.6 ± 9.4	0.2 ± 0.4	5.1 ± 9.3	significantly reduced
